Columns and labels:
[1] = target: GDP-bound KRAS wild-type protein (Homo sapiens, UniProt P01116); test: Binding to KRAS by surface plasmon resonance (SPR), dissociation constant KD; details: 1:1 binding model
Method in brief: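 Captured GDP-RAS (~100–300 RU) was exposed to increasing compound concentrations, 75 s per step, in running buffer with 10 µM GDP, 10 mM MgCl2 and 4% DMSO at pH 7.4.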

[2] = target: GDP-bound NRAS wild-type protein (Homo sapiens, UniProt P01111); test: Binding to NRAS by surface plasmon resonance (SPR), KD and KD ratio to KRAS; details: ratio of KD for GDP-bound NRAS wild-type protein to KD for KRAS
Method in brief: (§1)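 Biotinylated GDP-bound RAS was captured at about 100–300 RU. Running buffer: HBS pH 7.4, 10 mM MgCl2, 10 µM GDP, 1 mM DTT, 0.01% Tween 20, 4% DMSO.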

HRAS wild-type protein = HRAS wild-type protein (Homo sapiens, UniProt P01112); test: Binding to HRAS by surface plasmon resonance (SPR), KD and KD ratio to KRAS; details: ratio of KD for HRAS wild-type protein to KD for KRAS
Method in brief: as §1

[3] = tested on: human lung cancer strain NCI-H441; test: NCI-H441 cell proliferation inhibitory activity (CellTiter-Glo, 4 days); type: cell-based; details: NCI-H441 cells, 4 days, read-out: NCl-H441 IC50
Method in brief: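 Step one: dispense the test compound in serial DMSO dilutions. Step three: add the reagent and measure […].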

Sequence of GDP-bound NRAS wild-type protein (P01111 whole entry): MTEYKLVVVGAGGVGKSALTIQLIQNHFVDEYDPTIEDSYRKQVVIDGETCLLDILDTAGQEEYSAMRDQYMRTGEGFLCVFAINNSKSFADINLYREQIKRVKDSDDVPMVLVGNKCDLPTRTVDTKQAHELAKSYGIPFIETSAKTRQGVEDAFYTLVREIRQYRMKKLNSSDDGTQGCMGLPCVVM
Sequence of HRAS wild-type protein (P01112 whole entry): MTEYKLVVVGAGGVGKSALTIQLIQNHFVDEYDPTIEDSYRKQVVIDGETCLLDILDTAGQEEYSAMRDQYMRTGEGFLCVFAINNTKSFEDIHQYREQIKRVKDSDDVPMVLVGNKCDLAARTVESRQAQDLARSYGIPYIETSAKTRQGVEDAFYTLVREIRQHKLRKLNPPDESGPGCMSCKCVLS
Sequence of GDP-bound KRAS wild-type protein (P01116 1-188 isoform P01116-2): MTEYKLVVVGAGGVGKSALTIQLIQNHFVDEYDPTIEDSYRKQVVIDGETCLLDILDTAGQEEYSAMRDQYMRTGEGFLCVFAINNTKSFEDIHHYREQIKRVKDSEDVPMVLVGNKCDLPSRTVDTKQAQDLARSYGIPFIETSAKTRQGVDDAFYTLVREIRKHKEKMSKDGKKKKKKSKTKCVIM

Row | Compound | Kd [1] | IC50 [3] | NRAS /KRAS [2] | HRAS /KRAS (HRAS wild-type protein)
1 | CCC(CC)[C@H]1C(=O)N(C)[C@H](C(=O)N2CCCCC2)CC(=O)N(C)[C@@H](COC)C(=O)N[C@@H]([C@@H](C)CC)C(=O)N(C)CC(=O)N(C)[C@H]2C/C=C\CCN(C2=O)[C@@H](Cc2ccc(C(F)(F)F)cc2)C(=O)N(C)CC(=O)N[C@@H](CCc2cc(F)c(C(F)(F)F)c(F)c2)C(=O)N2C[C@H](OC(C)C)C[C@H]2C(=O)NC2(CC(C)(C)C2)C(=O)N1C [PP2608] | 1.4 nM | 53 nM | AA (a compound having 20 or more is denoted as AA) | A (a compound having 10 or more and less than 20 is denoted as A)
2 | CCC(CC)[C@H]1C(=O)N(C)[C@H](C(=O)N2CCCCC2)CC(=O)N(C)[C@@H](COC)C(=O)N[C@@H]([C@@H](C)CC)C(=O)N(C)CC(=O)N(C)[C@H]2C/C=C\CCN(C2=O)[C@@H](Cc2ccc(C(F)(F)F)cc2)C(=O)N(C)CC(=O)N[C@@H](CCc2ccc(Cl)c(Cl)c2)C(=O)N2C[C@H](OC(C)C)C[C@H]2C(=O)NC2(CC(C)(C)C2)C(=O)N1C [PP2612] | 2.4 nM | 199 nM | AA (a compound having 20 or more is denoted as AA) | A (a compound having 10 or more and less than 20 is denoted as A)
3 | CCC(CC)[C@H]1C(=O)N(C)[C@H](C(=O)N(C)C)CC(=O)N(C)[C@@H](COC)C(=O)N[C@@H]([C@@H](C)CC)C(=O)N(C2CC2)CC(=O)N(C)[C@H]2C/C=C\CCN(C2=O)[C@@H](CC2CCC(F)(F)CC2)C(=O)N(C)CC(=O)N[C@@H](CCc2cc(F)c(C(F)(F)F)c(F)c2)C(=O)N2C[C@H](OC3CCC3)C[C@H]2C(=O)NC2(CC(C)(C)C2)C(=O)N1C [PP2615] | 2 nM | 88.7 nM | A (a compound having 10 or more and less than 20 is denoted as A) | A (a compound having 10 or more and less than 20 is denoted as A)
4 | CC[C@H](C)[C@@H]1NC(=O)[C@H](COC)N(C)C(=O)C[C@@H](C(=O)N(C)C)N(C)C(=O)[C@H](C2CCCC2)N(C)C(=O)C2(CC(C)(C)C2)NC(=O)[C@@H]2C[C@@H](OC3CCC3)CN2C(=O)[C@H](CCc2cc(F)c(C(F)(F)F)c(F)c2)NC(=O)CN(C)C(=O)[C@H](CC2CCCCC2)N2CC/C=C\C[C@@H](C2=O)N(C)C(=O)CN(C2CC2)C1=O [PP2618] | 1.4 nM | 69.5 nM | A (a compound having 10 or more and less than 20 is denoted as A) | A (a compound having 10 or more and less than 20 is denoted as A)
5 | CC[C@H](C)[C@@H]1NC(=O)[C@H](COC)N(C)C(=O)C[C@@H](C(=O)N(C)C)N(C)C(=O)[C@H](C2CCCC2)N(C)C(=O)C2(CC(C)(C)C2)NC(=O)[C@@H]2C[C@@H](OC3CCC3)CN2C(=O)[C@H](CCc2cc(F)c(C(F)(F)F)c(F)c2)NC(=O)CN(C)C(=O)[C@H](CC2CCC(F)(F)CC2)N2CC/C=C\C[C@@H](C2=O)N(C)C(=O)CN(C2CC2)C1=O [PP2622] | 0.53 nM | 43.8 nM | A (a compound having 10 or more and less than 20 is denoted as A) | B (a compound having 3 or more and less than 10 is denoted as B)
6 | CCC[C@H]1C(=O)N[C@@H]([C@@H](C)CC)C(=O)N2CCC[C@H]2C(=O)N(C)[C@H]2C/C=C\CCN(C2=O)[C@@H](Cc2ccc(C)cc2)C(=O)N(C)CC(=O)N[C@@H](CCc2ccc(Cl)c(Cl)c2)C(=O)N2C[C@H](OCC)C[C@H]2C(=O)NC2(CC(C)(C)C2)C(=O)N(C)[C@@H](C(CC)CC)C(=O)N(C)[C@H](C(=O)N(C)C)CC(=O)N1C [PP2638] | 2.5 nM | 97 nM | AA (a compound having 20 or more is denoted as AA) | A (a compound having 10 or more and less than 20 is denoted as A)
7 | CCC(CC)[C@H]1C(=O)N(C)[C@H](C(=O)N(C)C)CC(=O)N(C)[C@@H](COC)C(=O)N[C@@H]([C@@H](C)CC)C(=O)N2CCC[C@H]2C(=O)N(C)[C@H]2C/C=C\CCN(C2=O)[C@@H](Cc2ccc(C(F)(F)F)cc2)C(=O)N(C)CC(=O)N[C@@H](CCc2ccc(Cl)c(Cl)c2)C(=O)N2C[C@H](OC(C)C)C[C@H]2C(=O)NC2(CC(C)(C)C2)C(=O)N1C [PP2639] | 1.1 nM | 81.6 nM | AA (a compound having 20 or more is denoted as AA) | A (a compound having 10 or more and less than 20 is denoted as A)
8 | CCC[C@H]1C(=O)N[C@@H]([C@@H](C)CC)C(=O)N2CCC[C@H]2C(=O)N(C)[C@H]2C/C=C\CCN(C2=O)[C@@H](Cc2ccc(C)cc2)C(=O)N(C)CC(=O)N[C@@H](CCc2ccc(Cl)c(Cl)c2)C(=O)N2C[C@H](OC(C)C)C[C@H]2C(=O)NC2(CC(C)(C)C2)C(=O)N(C)[C@@H](C(CC)CC)C(=O)N(C)[C@H](C(=O)N(C)C)CC(=O)N1C [PP2641] | 2 nM | 98.6 nM | AA (a compound having 20 or more is denoted as AA) | A (a compound having 10 or more and less than 20 is denoted as A)

Now from value to compound, other results behind:

Row | Kd [1] | IC50 [3] | Compound | NRAS /KRAS [2] | HRAS /KRAS (HRAS wild-type protein)
9 | 0.27 nM | 12.1 nM | CCC[C@H]1C(=O)N[C@@H]([C@@H](C)CC)C(=O)N(C2CC2)CC(=O)N(C)[C@H]2C/C=C\CCN(C2=O)[C@@H](Cc2ccc(C)cc2)C(=O)N(C)CC(=O)N[C@@H](CCc2cc(F)c(C(F)(F)F)c(F)c2)C(=O)N2C[C@H](OC3CCC3)C[C@H]2C(=O)NC2(CC(C)(C)C2)C(=O)N(C)[C@@H](C2CCCC2)C(=O)N(C)[C@H](C(=O)N(C)C)CC(=O)N1C [PP2614] | A (a compound having 10 or more and less than 20 is denoted as A) | A (a compound having 10 or more and less than 20 is denoted as A)
10 | 0.8 nM | 66.4 nM | CCC[C@H]1C(=O)N[C@@H]([C@@H](C)CC)C(=O)N(C2CC2)CC(=O)N(C)[C@H]2C/C=C\CCN(C2=O)[C@@H](Cc2ccc(C)cc2)C(=O)N(C)CC(=O)N[C@@H](CCc2ccc(Cl)c(Cl)c2)C(=O)N2C[C@H](OC3CCC3)C[C@H]2C(=O)NC2(CC(C)(C)C2)C(=O)N(C)[C@@H](C2CCCC2)C(=O)N(C)[C@H](C(=O)N(C)C)CC(=O)N1C [PP2616] | A (a compound having 10 or more and less than 20 is denoted as A) | A (a compound having 10 or more and less than 20 is denoted as A)
11 | 2.6 nM | 95.2 nM | CCC(CC)[C@H]1C(=O)N(C)[C@H](C(=O)N(C)C)CC(=O)N(C)[C@@H](COC)C(=O)N[C@@H]([C@@H](C)CC)C(=O)N(C2CC2)CC(=O)N(C)[C@H]2C/C=C\CCN(C2=O)[C@@H](CC2CCC(F)(F)CC2)C(=O)N(C)CC(=O)N[C@@H](CCc2cc(F)c(C(F)(F)F)c(F)c2)C(=O)N2C[C@H](OC3CCCC3)C[C@H]2C(=O)NC2(CC(C)(C)C2)C(=O)N1C [PP2627] | A (a compound having 10 or more and less than 20 is denoted as A) | A (a compound having 10 or more and less than 20 is denoted as A)
12 | 3 nM | 190 nM | CC[C@H](C)[C@@H]1NC(=O)[C@H](COC)N(C)C(=O)C[C@@H](C(=O)N(C)C)N(C)C(=O)[C@H](C2CCCC2)N(C)C(=O)C2(CC(C)(C)C2)NC(=O)[C@@H]2C[C@@H](OC3CCCC3)CN2C(=O)[C@H](CCc2cc(F)c(C(F)(F)F)c(F)c2)NC(=O)CN(C)C(=O)[C@H](CC2CCCCC2)N2CC/C=C\C[C@@H](C2=O)N(C)C(=O)CN(C2CC2)C1=O [PP2630] | A (a compound having 10 or more and less than 20 is denoted as A) | B (a compound having 3 or more and less than 10 is denoted as B)
13 | 0.97 nM | 50.2 nM | CCO[C@@H]1C[C@H]2C(=O)NC3(CC(C)(C)C3)C(=O)N(C)[C@@H](C(CC)CC)C(=O)N(C)[C@H](C(=O)N(C)C)CC(=O)N(C)[C@@H](COC)C(=O)N[C@@H]([C@@H](C)CC)C(=O)N3CCC[C@H]3C(=O)N(C)[C@H]3C/C=C\CCN(C3=O)[C@@H](Cc3ccc(C(F)(F)F)cc3)C(=O)N(C)CC(=O)N[C@@H](CCc3ccc(Cl)c(Cl)c3)C(=O)N2C1 [PP2635] | AA (a compound having 20 or more is denoted as AA) | A (a compound having 10 or more and less than 20 is denoted as A)
14 | 1 nM | 61.4 nM | CCC[C@H]1C(=O)N[C@@H]([C@@H](C)CC)C(=O)N2CCC[C@H]2C(=O)N(C)[C@H]2C/C=C\CCN(C2=O)[C@@H](Cc2ccc(C(F)F)cc2)C(=O)N(C)CC(=O)N[C@@H](CCc2ccc(Cl)c(Cl)c2)C(=O)N2C[C@H](OCC)C[C@H]2C(=O)NC2(CC(C)(C)C2)C(=O)N(C)[C@@H](C(CC)CC)C(=O)N(C)[C@H](C(=O)N(C)C)CC(=O)N1C [PP2637] | AA (a compound having 20 or more is denoted as AA) | A (a compound having 10 or more and less than 20 is denoted as A)

Reference: patent EP4603105A1, “PHARMACEUTICAL COMPOSITION CONTAINING CYCLIC COMPOUND HAVING SELECTIVE KRAS INHIBITORY EFFECT AGAINST HRAS AND NRAS” (CHUGAI SEIYAKU KABUSHIKI KAISHA, priority 2022, dated 2024)
